ChEMBL document CHEMBL1201862, “PubChem BioAssay data set” (2004)
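Grown in 96-well plates, cells were treated for 48 hours with each compound at five concentrations. Insufficient inhibition: endpoint recorded as highest concentration tested. Abbreviation: GI50, concentration required for 50% inhibition of growth.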 Calls of active or inactive are those of the source. No stated cut-off is given here; in the data, active = GI50 up to about 1.1 µM and inactive = higher.

Assays:
Assay in all cases: NCI tumour cell line growth inhibition, 48 h
OVCAR-3 = tested on: OVCAR-3
MCF7 = tested on: MCF7
HCT-15 = tested on: HCT-15
MDA-MB-435 = tested on: MDA-MB-435
OVCAR-5 = tested on: OVCAR-5
SF-295 = tested on: SF-295
ACHN = tested on: ACHN
A498 = tested on: A498
UO-31 = tested on: UO-31
SNB-75 = tested on: SNB-75
HT-29 = tested on: HT-29
SK-MEL-5 = tested on: SK-MEL-5
786-0 = tested on: 786-0
T47D = tested on: T47D
SW-620 = tested on: SW-620
PC-3 = tested on: PC-3
NCI/ADR-RES = tested on: NCI/ADR-RES
DU-145 = tested on: DU-145
CAKI-1 = tested on: CAKI-1

SMILES	GI50 (OVCAR-3)	GI50 (MCF7)	GI50 (HCT-15) [µM]	GI50 (MDA-MB-435)	GI50 (OVCAR-5)	GI50 (SF-295)	GI50 (ACHN)	GI50 (A498)	GI50 (UO-31)	GI50 (SNB-75)	GI50 (HT-29)	GI50 (SK-MEL-5)	GI50 (786-0)	GI50 (T47D)	GI50 (SW-620)	GI50 (PC-3)	GI50 (NCI/ADR-RES)	GI50 (DU-145)	GI50 (CAKI-1)
Nc1ccc(S2(c3ccc(N)cc3)C=C(c3ccccc3)C(c3ccccc3)=C2)cc1	> 100 µM (inactive)	> 32.1 µM (inactive)	> 54.2	> 35.9 µM (inactive)	> 65.6 µM (inactive)	16.4 µM (inactive)	> 28.6 µM (inactive)	> 29.4 µM (inactive)	> 40.6 µM (inactive)	> 100 µM (inactive)	> 44.7 µM (inactive)	> 100 µM (inactive)	24 µM (inactive)	> 100 µM (inactive)	> 57.7 µM (inactive)	> 25.2 µM (inactive)	> 35.1 µM (inactive)	> 38.4 µM (inactive)	–
COc1ccc2nc3n(c2c1)C(c1c(F)cccc1Cl)SC3 (stereo not drawn)	> 100 µM (inactive)	> 100 µM (inactive)	> 100	> 100 µM (inactive)	> 100 µM (inactive)	> 100 µM (inactive)	> 100 µM (inactive)	> 100 µM (inactive)	> 100 µM (inactive)	> 100 µM (inactive)	–	> 100 µM (inactive)	> 100 µM (inactive)	> 100 µM (inactive)	> 100 µM (inactive)	> 100 µM (inactive)	23.3 µM (inactive)	> 100 µM (inactive)	> 100 µM (inactive)
CC1=C(/C=C/Cl)CC(Cl)C(C)(Cl)C1 (stereo not drawn)	–	40 µM (inactive)	> 100	> 100 µM (inactive)	> 100 µM (inactive)	> 100 µM (inactive)	> 100 µM (inactive)	> 100 µM (inactive)	> 100 µM (inactive)	> 100 µM (inactive)	55.8 µM (inactive)	> 100 µM (inactive)	> 100 µM (inactive)	> 100 µM (inactive)	> 100 µM (inactive)	> 100 µM (inactive)	> 100 µM (inactive)	> 100 µM (inactive)	> 100 µM (inactive)
COc1ccc(-c2c(-c3ccc(OC)cc3)n3c(=O)n(C)c(=O)n23)cc1	18.2 µM (inactive)	> 100 µM (inactive)	81.5	> 100 µM (inactive)	–	> 100 µM (inactive)	67.1 µM (inactive)	19.4 µM (inactive)	32.3 µM (inactive)	> 100 µM (inactive)	–	> 100 µM (inactive)	> 100 µM (inactive)	20.6 µM (inactive)	> 100 µM (inactive)	27.4 µM (inactive)	18.4 µM (inactive)	15.6 µM (inactive)	> 100 µM (inactive)
C(=N\Nc1nnc(-c2nnc(N/N=C/c3ccccc3)o2)o1)/c1ccccc1	> 10 µM (inactive)	> 10 µM (inactive)	> 10	> 10 µM (inactive)	> 10 µM (inactive)	> 10 µM (inactive)	> 10 µM (inactive)	> 10 µM (inactive)	> 10 µM (inactive)	–	> 10 µM (inactive)	> 10 µM (inactive)	> 10 µM (inactive)	> 10 µM (inactive)	> 10 µM (inactive)	> 10 µM (inactive)	> 10 µM (inactive)	> 10 µM (inactive)	> 10 µM (inactive)
NC(=O)NC1C(c2ccccc2)=C1c1ccccc1	28.9 µM (inactive)	14.7 µM (inactive)	13.6	18.7 µM (inactive)	23.2 µM (inactive)	17.6 µM (inactive)	10.6 µM (inactive)	15 µM (inactive)	13.6 µM (inactive)	–	21.7 µM (inactive)	11.1 µM (inactive)	22.4 µM (inactive)	69.5 µM (inactive)	13.7 µM (inactive)	17.1 µM (inactive)	10.5 µM (inactive)	41.3 µM (inactive)	18.9 µM (inactive)
CN(C)Cc1ccc(-c2cc3onc(-c4ccccc4)c3c(=O)n2C)cc1	37.4 µM (inactive)	41.2 µM (inactive)	20.5	19.2 µM (inactive)	40.6 µM (inactive)	22.9 µM (inactive)	67.5 µM (inactive)	22.6 µM (inactive)	11.6 µM (inactive)	–	11 µM (inactive)	17.9 µM (inactive)	17.3 µM (inactive)	20 µM (inactive)	21.3 µM (inactive)	39.8 µM (inactive)	41.5 µM (inactive)	28.8 µM (inactive)	85.3 µM (inactive)
COC1(O)C(=O)c2ccccc2OC1(OC)c1ccccc1 (stereo not drawn)	> 100 µM (inactive)	48.9 µM (inactive)	31.8	> 100 µM (inactive)	> 100 µM (inactive)	> 100 µM (inactive)	> 100 µM (inactive)	> 100 µM (inactive)	–	> 100 µM (inactive)	> 100 µM (inactive)	> 100 µM (inactive)	> 100 µM (inactive)	> 100 µM (inactive)	> 100 µM (inactive)	> 100 µM (inactive)	77.8 µM (inactive)	> 100 µM (inactive)	> 100 µM (inactive)
